Biological target: T1, récepteurs 5-HT3 (Rattus norvegicus, UniProt P35563)
T1 construct: induite par l'injection intraveineuse d'agonistes 5-HT3 chez le rat anesthésié à l'uréthane; from tissue; host or cells: whole animal: Sprague-Dawley rat, vagal afferents
T1 sequence (P35563 24-483): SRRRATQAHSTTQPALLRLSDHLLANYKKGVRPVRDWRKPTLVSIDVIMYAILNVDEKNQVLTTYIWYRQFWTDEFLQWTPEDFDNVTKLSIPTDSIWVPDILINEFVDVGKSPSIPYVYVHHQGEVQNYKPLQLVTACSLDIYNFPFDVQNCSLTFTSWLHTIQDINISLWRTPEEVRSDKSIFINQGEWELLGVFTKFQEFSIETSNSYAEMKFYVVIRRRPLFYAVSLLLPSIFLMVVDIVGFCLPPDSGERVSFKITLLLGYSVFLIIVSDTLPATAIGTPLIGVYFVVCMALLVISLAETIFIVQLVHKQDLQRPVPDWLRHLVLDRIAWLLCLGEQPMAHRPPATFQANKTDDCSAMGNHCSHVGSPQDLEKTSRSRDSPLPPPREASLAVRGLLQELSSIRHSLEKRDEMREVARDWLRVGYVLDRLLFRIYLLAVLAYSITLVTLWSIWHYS
Experiment: Bezold-Jarisch bradycardic reflex in the urethane-anaesthetised rat
Format: in vivo
Conditions: for prevention of the agonist-induced fall of rythme cardiaque: prior i.v. administration, dose 1 µg/kg; for duration of the transient fall of rythme cardiaque: 30 µg i.v.
From the text: La bradycardie (réflexe de BEZOLD-JARISCH) est induite par l'injection intraveineuse d'agonistes 5-HT3 chez le rat anesthésié à l'uréthane. Cette réponse consiste en une bradycardie brutale mais transitoire induite par la stimulation des récepteurs 5-HT3 sur les afférences vagales. Ce modèle est donc tout à fait approprié pour révéler d'éventuels effet agonistes ou antagonistes de composés qui sont des ligands potentiels des récepteurs 5-HT3.
L'animal (rat mâle, adulte - souche Sprague-Dawley, 250-300 g) est tout d'abord anesthésié à l'uréthane (1,4 g/kg i.p.) puis trachéotomisé pour la mise en place d'une canule trachéale. Un cathéter (0,3 mm) est introduit dans l'aorte abdominale via l'artère fémorale pour l'enregistrement en continu de la pression artérielle et du rythme cardiaque. Les agents pharmacologiques sont injectés dans la veine saphène qui a été canulée à cet effet.

COc1cc(N)c(Cl)cc1C(=O)NC1CN2CCC1CC2 (stereo not shown) [zacopride]
prevention of the agonist-induced fall of rythme cardiaque: complétement empêché

Cc1nccn1CC1CCc2c(c3ccccc3n2C)C1=O (stereo not shown) [ondansetron]
prevention of the agonist-induced fall of rythme cardiaque: complétement empêché

NCCc1c[nH]c2ccc(O)cc12 [sérotonine]
duration of the transient fall of rythme cardiaque: 4-5 secondes

Cc1[nH]c2ccc(O)cc2c1CCN [2-méthyl-5-tryptamine, 2-méthyl-5 hydroxytryptamine]
duration of the transient fall of rythme cardiaque: 4-5 secondes

— patent EP0573360A1, “Pyrrolothienopyrazine compounds as 5-HT3 receptors antagonists” (ADIR ET COMPAGNIE, priority 1992, dated 1993)
